Literature values in article PMC7886095 (Drug Design, Development and Therapy, 2021).

aqueous solubility: < 1 µg/mL
Structure (SMILES): COc1cc(O)c2c(=O)cc(-c3ccc(O)cc3)oc2c1 [GKA, Genkwanin]
